Reference: patent US11225474B2, “Crystalline salt forms of 3-(1,2,4-triazolo[4,3-a]pyridine-3-ylethynyl)-4-methyl-N-(4-((4-methylpiperazin-1-yl)methyl)-3-trifluoromethylphenyl)benzamide for medical application” (priority 2016, dated 2022)
In brackets after ≈: the same amount, converted by molar mass.

Columns and labels:
[1] = Solubility of the free base in various solvents; format: physicochemical; details: thermodynamic from solid
Procedure: At the first stage the initial base was tested for solubility in selected organic solvents. The maximum selected solvent volume used in this test was 1.25 mL per 1 mg of base. Low toxicity (Class 3), low-boiling (Tboiling<100° C.), polar, solvents. in which the base was soluble at no less than 10 mg/mL were selected for further studies.

physchem [2] = format: physicochemical; details: deionized water, water; read-out: Apparent solubility
[3] = Stability, 7 days at T = 60° C.; format: physicochemical
[4] = Stability of polymorph modifications, suspending in acetone for 6 days; format: physicochemical
Procedure: Crystallinity of all samples obtained was studied using the method of X-ray powder diffraction (to study the crystallinity structure). Diffraction patterns were obtained at a temperature of 25° C. […] Survey step 0.02° 2θ, angle range 3-45° 2θ. Diffraction patterns obtained were studied in detail using X'Pert HighScore Plus software package.

[5] = Hygroscopicity by gravimetric moisture absorption; format: physicochemical; details: relative air humidity of 90%
Description: Samples were also studied using the following methods: polarization microscopy (Leica DMRB Polarized Microscope, resolution of 1600×1200)—to confirm crystallinity, ion chromatography—to confirm anion and cation stoichiometric proportion, differential scanning calorimetry (DSC) and thermogravimetric analysis (TGA)—to confirm composition and study of temperature stability of samples; ^1H NMR (500 MHz Bruker AVANCE 500.13 MHz, solvent DMSO-d6)—to confirm structure, assess purity and content of organic solvents; gravimetric moisture absorption—to assess hygroscopicity. DSC was carried out using Mettler 822e DSC apparatus. The measuring system was calibrated according to ISO 11357-1 standard based on standard substances phase changes (C6H12; Hg; benzoic acid; Ga; KNO3; In; Sn; Bi; CsCl; purity grade 99.99%). Temperature calibration regular error (determined based on In) is 0.1°. Samples were tested in standard aluminum cells in the artificial air flow at a temperature range of 30-300° C. with heating speed of 10°/min. TG measurements were taken using Mettler 851e SDTA/TGA TG analyzer. The apparatus was calibrated using standard substances melting points (Ag; Al; Bi; In; Sn; purity grade of 99.99%). Weighing error is NMT 0.1% (determined using CaC2O4·2H2O standard). The test was carried out in a standard open aluminum container in the artificial air flow at a temperature range of 30-150° C. with heating speed of 10°/min. To avoid dehydration, the material was not exposed to mechanical treatment before taking measurements.

pKa of the base = format: physicochemical
[6] = Dissolution kinetics (USP Apparatus 1 Basket Method); format: physicochemical
Procedure: During further studies of the polymorphous modifications of the methanesulfonic acid salt of 3-(1,2,4-triazolo[4,3-a]pyridine-3-ylethynyl)-4-methyl-N-(4-((4-methylpiperazine-1-yl)methyl)-3-trifluoromethylphenyl)benzamide, the kinetics of dissolution of the free base and the two methanesulfonic acid salt form polymorphous modifications was studied. Dissolution kinetics studies were performed using USP Apparatus 1 Basket Method (USP40, General Chapter <711>. Dissolution), dissolution media volume—700 mL, temperature—37±1° C. paddle stirrers' rotation rate—100 rpm. The test sample dissolution rate was calculated as an average of six repeats. Distilled water was used as the dissolution medium for the polymorphous modifications of 3-(1,2,4-triazolo[4,3-a]pyridine-3-ylethynyl)-4-methyl-N-(4-((4-methylpiperazine-1-yl)methyl)-3-trifluoromethylphenyl)benzamide methanesulfonic acid salt and, and a solution of 12.2 mL of methanesulfonic acid in 500 mL of water was used as the dissolution medium for the free base. Test portions containing 100 mg of 3-(1,2,4-triazolo[4,3-a]pyridine-3-ylethynyl)-4-methyl-N-(4-((4-methylpiperazine-1-yl)methyl)-3-trifluoromethylphenyl)benzamide or 118 mg of 3-(1,2,4-triazolo[4,3-a]pyridine-3-ylethynyl)-4-methyl-N-(4-((4-methylpiperazine-1-yl)methyl)-3-trifluoromethylphenyl)benzamide methanesulfonic acid salt (100 mg calculated as free base) were used for dissolution. In 780 minutes (13 hours) after the beginning of the test, pH of prepared solutions was measured.

in vivo = assay: in vivo; set-up: species or system C57BL/6 line mice; details: free base 50 mg/kg, single oral, C57BL/6 mice, plasma
Procedure: FIGS. 52A-52B. […] The mean values were determined for each time point on the basis of the individual data obtained from three animals.
The results of the study are given in FIG. 52 and in Tables 14 and 15.

[7] = Acute toxicity, oral route, mice; details: male, CD-1, mouse, in vivo, po, LD50, oral, male CD-1 mice; dose of the substance administered
Description: (§1) For each drug dose study a group of six animals was used. The study included control groups with the same animal headcount, which received equivalent solvent doses of a 0.5% water solution of methylcellulose. The follow-up period was 28 days. Lab mouse survivability analysis allowed carrying out Bliss analysis and determining the lethal doses of the studied drugs.

CD-1 line mice males = assay: Acute toxicity, oral route, mice
Description: as §1

[8] = tested on: Sca1+ marrow cells, expressing p185-T315I^BCR/ABL; assay: BCR/ABL-induced chronic myelogenous leukemia model; format: in vivo, C57BL/6N line mice; details: oral, 50 mg/kg free base; control 55.0 ± 6.3
Procedure: To assess the efficacy of the free base and methanesulfonic acid salt of 3-(1,2,4-triazolo[4,3-a]pyridine-3-ylethynyl)-4-methyl-N-(4-((4-methylpiperazine-1-yl)methyl)-3-trifluoromethylphenyl)benzamide for treating chronic myelogenous leukemia (CML) studies of the compounds' activity on the BCR/ABL-induced CML-like disease in mice were conducted. In the study C57BL/6N line mice were used. […] The efficacy of therapy with 3-(1,2,4-triazolo[4,3-a]pyridine-3-ylethynyl)-4-methyl-N-(4-((4-methylpiperazine-1-yl)methyl)-3-trifluoromethylphenyl)benzamide administered orally as a free base and methanesulfonic acid salt was studied.

physchem [9] = details: deionized water, thermodynamic from solid, Equilibrium solubility, HPLC analysis
[10] = oral, male CD-1 mice, dose of the substance administered

Cc1ccc(C(=O)Nc2ccc(CN3CCN(C)CC3)c(C(F)(F)F)c2)cc1C#Cc1nnc2ccccn12 [free base, 3-(1,2,4-triazolo[4,3-a]pyridine-3-ylethynyl)-4-methyl-N-(4-((4-methylpiperazin-1-yl)methyl)-3-trifluoromethylphenyl)benzamide] showed a solubility ([1]; organic solvent or mixture, 2-methyltetrahydrofuran, 3.7 mg in 0.6 mL, 50 °C) greater than 800 µg/mL, a solubility ([1]; organic solvent or mixture, Acetone, 3.4 mg in 0.3 mL, 50 °C) greater than 800 µg/mL and a solubility ([1]; organic solvent or mixture, Acetonitrile, 3.5 mg in 4.0 mL, 50 °C) of less than 800 µg/mL. It also gave a solubility ([1]; organic solvent or mixture, Cyclohexane, 4.3 mg in 4.0 mL, 50 °C) of less than 800 µg/mL, a solubility ([1]; organic solvent or mixture, Dichloromethane, 3.7 mg in 0.4 mL, 50 °C) greater than 800 µg/mL and a solubility ([1]; organic solvent or mixture, Dimethyl sulfoxide, 3.8 mg in 0.1 mL, RT) greater than 800 µg/mL. It also gave a solubility ([1]; organic solvent or mixture, Dimethylformamide, 4.7 mg in 0.1 mL, RT) greater than 800 µg/mL, a solubility ([1]; organic solvent or mixture, Ethanol, 4.7 mg in 0.3 mL, 50 °C) greater than 800 µg/mL and a solubility ([1]; organic solvent or mixture, Ethyl acetate, 3.9 mg in 1.3 mL, 50 °C) greater than 800 µg/mL. It also gave a solubility ([1]; organic solvent or mixture, Heptane, 3.3 mg in 4.0 mL, 50 °C) of less than 800 µg/mL, a solubility ([1]; organic solvent or mixture, Isopropanol, 3.6 mg in 0.4 mL, 50 °C) greater than 800 µg/mL and a solubility ([1]; organic solvent or mixture, Isopropyl acetate, 4.0 mg in 4.0 mL, 50 °C) of less than 800 µg/mL. It also gave a solubility ([1]; organic solvent or mixture, Methanol, 4.0 mg in 0.1 mL, 50 °C) greater than 800 µg/mL, a solubility ([1]; organic solvent or mixture, Methyl ethyl ketone, 4.8 mg in 0.4 mL, 50 °C) greater than 800 µg/mL and a solubility ([1]; organic solvent or mixture, Methyl isobutyl ketone, 4.1 mg in 0.6 mL, 50 °C) greater than 800 µg/mL. It also gave a solubility ([1]; organic solvent or mixture, Methyl tert-butyl ether, 4.7 mg in 4.0 mL, 50 °C) of less than 800 µg/mL, a solubility ([1]; organic solvent or mixture, N-methylpyrrolidone, 3.7 mg in 0.1 mL, RT) greater than 800 µg/mL and a solubility ([1]; organic solvent or mixture, Tetrahydrofuran, 3.6 mg in 0.1 mL, 50 °C) greater than 800 µg/mL. For the same compound, the solubility ([1]; organic solvent or mixture, Toluene, 3.4 mg in 4.0 mL, 50 °C) was less than 800 µg/mL, the solubility ([1]; organic solvent or mixture, n-Butanol, 3.6 mg in 0.2 mL, 50 °C) was greater than 800 µg/mL and the solubility ([1]; Water, 4.6 mg in 4.0 mL, 50 °C) was less than 800 µg/mL. The solubility (physchem [2]) was less than 1000 µg/mL, the “Crystallinity in 7 days” value ([3]; 7 days at T = 60° C.) was “Form I” and the “Relative peak area, in 7 days” value ([3]; 7 days at T = 60° C.) was 99.7%. For the same compound, the “Relative peak area, initial” value ([3]; before storage) was 99.7%, the content of impurities ([3]; kept seven days at 60° C.) was “remains constant” and the “crystalline structure after suspending in acetone” value ([4]; acetone, 6 days) was “changes”. The “Crystallinity in 6 days” value ([4]; suspending in acetone for 6 days, room temperature) was “Form II”, the “water absorbed (hygroscopicity)” value [5] was “less than three mass percent of water” and the pKa (pKa of the base) was roughly 6.4. The “pH of prepared solution” value ([6]; 780 minutes after beginning, medium 12.2 mL methanesulfonic acid in 500 mL water) was 4.02, the share dissolved ([6]; solution containing 12.2 mL methanesulfonic acid, 780 minutes (13 hours)) was “less than 90%” and the AUC0-24/24 (in vivo) was 452 ng/mL. For the same compound, the AUC(0-inf) (in vivo; mouse) was 10900 ng·h/mL, the half-life (in vivo; mouse) was 2.4 h and the AUC(0-t) (in vivo; mouse, read-out: AUC0-24) was 10900 ng·h/mL. It also gave a Cmax (in vivo; mouse, read-out: Cmax) of 1490 ng/mL, a Tmax (in vivo; mouse, read-out: Tmax) of 2 h and an LD50 at 28 days [7] of 677 ± 55 mg/kg. For the same compound, the “Dose without observable effects” value (CD-1 line mice males; male, CD-1, mouse, in vivo, po, 28 days) was 160 mg/kg, the “signs of animal intoxication” value (CD-1 line mice males; mouse, in vivo, po) was “dyspnea, hypodynamia, tumbled fur, diarrhea, bloating, in some animals—focal alopecia” and the LD10 (CD-1 line mice males; [10]) was 504 mg/kg. It also gave an LD90 (CD-1 line mice males; [10]) of 850 mg/kg, an Average life [8] of 93.0 ± 6.1 days and a pH (equilibrium solubility test in water) of 5.3. The “Crystallinity in 24 h” value (solid in water, equilibrium solubility test) was “Cryst” and the solubility thermodynamic (physchem [9]) was 0.23 µg/mL (≈ 0.432 µM).
